Data on one substance can be found in patent US20230398233A1, “OCULAR ANTIBODY-DRUG CONJUGATES” (ADS THERAPEUTICS LLC, priority 2020, published 2023).

The data set can be described thus: Hydrolysis in water control (phosphate buffer). To be noted: water control (method: phosphate buffer), 37° C., 0-72 h.

Method: The 2 μL working solution of either the test compound or the control compound was added and mixed. The samples were incubated at 37° C. and the reaction was stopped by adding 200 μL of quenching solution at 0, 1, 4, 8, 12, 24, 48 and 72 and vortexed vigorously for −1 min. The solution was then centrifuged at 4,000 rpm at 4° C. for 15 min. The 100 μL of the supernatant was removed and mixed with 100 μL distilled water for LC-MS/MS analysis. The 10 μL standard curve working solution was spiked to 190 μL phosphate solution, The 200 μL of quenching solution was added to each standard curve wells. The blank sample was prepared by adding 2 μL of MeOH/DMSO solvent to replace the working solution. The double blank samples was prepared by adding 2 μL of MeOH/DMSO solvent to replace the working solution and by quenching the matrix with acetonitrile/MeOH.

On to mPEG-PrA-Dexa [Compound 2], for which the “T ½ in water control” value is “No hydrolysis”.
